Assay results taken from publication PMC7307922 (Journal of Medicinal Chemistry, 2020).
In brackets after ≈: the same amount, converted by molar mass. Several values for one entry are separate records, joined by “and”; a condition that tells them apart may be missing. Equal entries are not always repeated.

Legend:
human GPR84 = human GPR84 (Homo sapiens, UniProt Q9NQS5); experiment: GPR84 counterscreen, cAMP assay; format: cell-based; settings: 10 μM
Experimental: (§1) Counter screening against FFA1, FFA2 , FF A4 and GPR84 […]
(100 ng/mL) overnight to induce receptor expressi on. […]
Counter screening for GPR84 was carried out using a cAMP assay. Flp -In T-Re x 293 cells generated to stably express human GPR84 tagged at is C-terminal with Gia were first treated with doxycycline […]
HT R-FRET cAMP assay (CisBio) according to the manufacturer’s protocol and measured using an Envision plate reader (PerkinElmer). For these experiments, 5000 cells were used per well in a low volume 384-well plate and compounds were tested against their ability to inhibit the cAMP response to 1 µM forskolin for 45 min. TUG-1985 was used as reference agonist. […]

human FFA1 = target: T1, human FFA1 (Homo sapiens, UniProt O14842); experiment: FFA1 counterscreen, arrestin BRET assay; format: cell-based; settings: 10 μM
T1 construct: expressed in transfected cells; host or cells: HEK293T, transient co-transfection
Experimental: Counter screening against FFA1, FFA2 , FF A4 and GPR84
Counter screening against FFA1 and FFA4 was carried out using a modified version of a previously described bioluminescence resonance energy transfer (BRET) designed to assess recruitment of b-ar r estin-2 to each receptor.2 Briefly, HEK293T cells were co-transfected with plasmids en coding either human FFA1 or human FFA4 tagged at their C -termini with eYFP and with a plasmid encoding b-ar r estin-2 tagged at its N-terminal with Nanoluciferase. 24 h post transfection cells were seeded into black with clear bottom 96-well plates that had been coated with poly-D-lysine. Cells were then cultured a further 24 h prior to experiments. Cells were then washed twice with Hank’s Balanced salt solution supplemented with 10 mM HEPES (HBSSH) then incubated at 37 °C in HBSSH for 30 min prior to running the assay. The Nluc substrate, coelenterazine h was then added to a f inal concentration of 5 µM and cells were incubated at 37 °C for 10 min prior to adding test agonists. Following a further 5 min incubation, luminescent emission at 475 nm and 535 nm was measured using a Pherastar FS reader (BMG Labtech, Aylesbury, UK) pla te reader set for bottom plate optics. The BRET ratio was then calculated as 535/475 emissions and all BRET ratio values were normalized against the maxima l BRET ratio obtained using reference agonists for the respective receptors (TUG -891 for FFA4, TUG-770 for FFA1). For antagonism studies, the same protocol was used, however the antagonist was added 15 min prior to the addition of an EC 80 concentration of the reference agonist for each receptor. […]

human FFA2 = target: T2, human FFA2 (Homo sapiens, UniProt O15552); experiment: FFA2 counterscreen, cAMP assay; format: cell-based; settings: 10 μM
T2 construct: expressed in transfected cells; host or cells: Flp-In T-REx 293, doxycycline-induced
T2 sequence (O15552 1-330): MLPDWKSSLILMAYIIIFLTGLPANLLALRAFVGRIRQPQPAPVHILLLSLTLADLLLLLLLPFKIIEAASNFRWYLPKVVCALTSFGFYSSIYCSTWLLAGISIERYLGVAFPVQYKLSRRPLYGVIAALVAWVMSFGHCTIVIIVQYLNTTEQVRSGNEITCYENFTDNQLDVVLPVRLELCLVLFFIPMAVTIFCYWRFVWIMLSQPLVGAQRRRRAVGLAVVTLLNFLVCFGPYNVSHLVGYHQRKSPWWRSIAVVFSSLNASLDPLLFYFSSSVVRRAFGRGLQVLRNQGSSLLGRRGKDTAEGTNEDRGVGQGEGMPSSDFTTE
Experimental: as §1
Counter screening for FFA2 was carried out using a cAMP assay. Flp-In T-Re x 293 cells generated to stably express human FFA2 tagged at is C-terminal with eYFP were first treated with doxycycline (100 ng/mL) overnight to induce receptor expressi on. Cells were then detached and used directly in an HT R-FRET cAMP assay (CisBio) according to the manufacturer’s protocol and measured using a Pherastar FS plate reader (BMG Labtech, Aylesbury, UK). For these experiments, 2000 cells were used per well in a low volume 384-well plate and compounds were tested against their ability to inhibit the cAMP response to 1 µM forskolin for 30 min. […]

[1] = Kinetic aqueous solubility in PBS pH 7.4; format: physicochemical; settings: for solubility: phosphate buffered saline, pH 7.4, read-out: Aq. solub.
Experimental: (§2) Solubility and log D7.4 measurements were performed in accordance to the previously published procedures.[35]

log D7.4 measurement = format: physicochemical; settings: pH 7.4; read-out: logD7.4
Experimental: as §2

[2] = Stability toward mouse liver microsomes; settings: remaining after 40 min incubation with MLMs
Experimental: The study was performed by Bienta (www.bienta.net). Mouse hepatic microsomes were isolated from pooled and perfused livers of male BALB/c mice (n = 50). Isolation was performed according to the standard protocol.[36]
Microsomal incubations were carried out in 96-well plates in 5 aliquots of 40 μL each (one for each time point). Liver microsomal incubation medium comprised PBS (100 mM, pH 7.4), MgCl2 (3.3 mM), NADPH (3 mM), glucose-6-phosphate (5.3 mM), and glucose-6-phosphate dehydrogenase (0.67 units/mL) with 0.42 mg of liver microsomal protein per ml. In the control reactions, the NADPH-cofactor system was substituted with PBS. […] Each reaction was performed in duplicates. Five time points over 40 min were analyzed. The reactions were stopped by adding 12 volumes of 90% acetonitrile–water to incubation aliquots, followed by protein sedimentation by centrifuging at 5500 rpm for 3 min. […]. Supernatants were analyzed using HPLC-MS/MS on an API 3000 PE instrument.

T1 sequence (O14842 whole entry): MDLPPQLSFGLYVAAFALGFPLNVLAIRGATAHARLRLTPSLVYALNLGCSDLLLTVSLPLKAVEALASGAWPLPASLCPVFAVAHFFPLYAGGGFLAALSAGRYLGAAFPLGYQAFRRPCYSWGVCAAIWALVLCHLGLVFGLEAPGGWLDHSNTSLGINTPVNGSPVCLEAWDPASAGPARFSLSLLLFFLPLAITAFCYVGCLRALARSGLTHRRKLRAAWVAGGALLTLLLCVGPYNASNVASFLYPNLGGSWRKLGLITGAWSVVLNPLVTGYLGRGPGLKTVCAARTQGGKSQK
human GPR84, sequence (Q9NQS5 whole entry): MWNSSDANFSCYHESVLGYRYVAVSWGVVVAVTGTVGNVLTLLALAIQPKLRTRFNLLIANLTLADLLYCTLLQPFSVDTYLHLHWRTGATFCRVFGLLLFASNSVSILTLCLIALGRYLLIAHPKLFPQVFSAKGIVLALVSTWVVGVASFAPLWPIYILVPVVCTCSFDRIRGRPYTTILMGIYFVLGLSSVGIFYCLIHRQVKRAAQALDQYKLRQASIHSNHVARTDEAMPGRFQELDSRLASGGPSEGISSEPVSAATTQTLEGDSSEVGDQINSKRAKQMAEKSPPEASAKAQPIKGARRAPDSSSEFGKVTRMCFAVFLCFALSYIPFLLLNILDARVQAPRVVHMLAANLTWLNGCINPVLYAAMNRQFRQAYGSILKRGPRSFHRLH

Row | SMILES | GPR84, agonist, cAMP assay (human GPR84) [%] | activity at GPR84 (human GPR84) | activity at FFA1 (human FFA1) | activity at FFA2 (human FFA2) | solubility [1] [µM] | logD (log D7.4 measurement) | MLM (%) remaining [2] | increase of solubility relative to 16 ([1]; kinetic solubility) [fold] | logD at 24 h (log D7.4 measurement)
1 | CC1=C(C(=O)Nc2ccccc2C)C(c2ccco2)C2=C(CCCC2=O)N1 (centres unmarked) [Compound 1, 4-(Furan-2-yl)-2-methyl-5-oxo-N-(o-tolyl)-1,4,5,6,7,8-hexahydroquinoline-3-carboxamide, reference compound] | 1±7 | No significant activity | No significant activity | No significant activity | 190 (≈ 68.9 µg/mL) | 2.05 | 52% | – | –
2 | CC1=C(C(=O)Nc2cc(Cl)ccc2Cl)C(c2ccco2)C2=C(CCCC2=O)N1 (centres unmarked) [Compound 16, reference compound] | 2±4 | No significant activity | No significant activity | No significant activity | 5 (≈ 2.09 µg/mL) | 3.19 | 1−2% and 1% | – | –
3 | CCCC1C(C(=O)Nc2cc(Cl)ccc2Cl)=C(C)NC2=C1C(=O)CCC2 (centres unmarked) [Compound 57, N-(2,5-Dichlorophenyl)-2-methyl-5-oxo-4-propyl-1,4,5,6,7,8-hexahydroquinoline-3-carboxamide] | 1±4 | No significant activity | No significant activity | No significant activity | 33 (≈ 13 µg/mL) | – | 1−2% and 1% | 6 | 4.25
4 | CC1=C(C(=O)Nc2cc(Cl)ccc2Cl)C(C2CCCC2)C2=C(CCCC2=O)N1 (centres unmarked) [Compound 63, 4-Cyclopentyl-N-(2,5-dichlorophenyl)-2-methyl-5-oxo-1,4,5,6,7,8-hexahydroquinoline-3-carboxamide] | 0±1 | No significant activity | No significant activity | No significant activity | 9 (≈ 3.77 µg/mL) | > 4.3 | 41% | – | –
